One experiment has as its system K562 cells. Description: Intracellular ROS by DCFDA fluorescent probe. It is filed as cell-based, human. Conditions: 24 h, basal 255.09±3.69 AU. As to the method:
Intracellular ROS were estimated by using the DCFDA fluorescent probe. Intracellular H2O2 and other peroxides can oxidize DCFDA to highly fluorescent compound dichlorofluorescein (DCF). K562 cells were incubated at 37°C in absence and presence of EGCG (12.5 – 100 µM) for 24 h. Cells were again incubated with 10 µM DCFDA at 37°C for an additional 30 min, and then washed twice with PBS. Finally the fluorescence intensity of DCF was measured with an excitation wavelength of 485 nm and emission wavelength of 530 nm.

For experiment [1], the system named is phosphorylation of JNK, JUN, MEK1, MEK2. As to conditions: JB6 epidermal cell lines, 5–20 µM; cited from earlier work.
In the next experiment the target is Bcl-2 proteins. Conditions: read-out: inhibition constant (K i); cited from earlier work.
In a further experiment the target is G3BP1. Conditions: read-out: dissociation constant (K d); cited from earlier work.
In experiment [2] the target is T1, Catalase (from bovine liver) (Bos taurus, UniProt P00432).
T1 construct: Catalase (from bovine liver); purchased Sigma-Aldrich, St. Louis, MO, USA; host or cells: bovine liver
T1 sequence (P00432 2-527 limits assumed): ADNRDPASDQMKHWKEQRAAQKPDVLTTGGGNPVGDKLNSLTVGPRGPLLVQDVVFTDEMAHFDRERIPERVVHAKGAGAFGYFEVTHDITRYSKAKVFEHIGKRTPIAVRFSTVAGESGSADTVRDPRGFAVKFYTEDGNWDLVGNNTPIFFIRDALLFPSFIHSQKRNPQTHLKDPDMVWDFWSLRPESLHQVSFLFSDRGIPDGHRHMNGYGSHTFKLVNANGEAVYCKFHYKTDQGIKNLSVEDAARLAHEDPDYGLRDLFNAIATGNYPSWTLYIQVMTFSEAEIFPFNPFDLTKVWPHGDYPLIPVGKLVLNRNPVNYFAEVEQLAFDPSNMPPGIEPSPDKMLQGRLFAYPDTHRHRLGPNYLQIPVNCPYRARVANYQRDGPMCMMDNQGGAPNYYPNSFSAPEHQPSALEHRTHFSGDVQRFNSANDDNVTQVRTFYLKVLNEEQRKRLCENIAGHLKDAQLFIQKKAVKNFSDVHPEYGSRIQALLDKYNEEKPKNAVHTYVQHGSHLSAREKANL
Description: Fluorimetric titration: quenching of catalase fluorescence by catechins. It counts as binding. As to the method: Fluorescence spectra were recorded using a Perkin Elmer fluorescence spectrophotometer (LS-55) equipped with 150 W Xenon flash lamp and using fluorescence-free quartz cell of 1 cm path length. The widths of excitation and emission slits were set to 5 nm, and scan speed (100 nm/min), excitation voltage were kept constant for each data set. Quantitative analysis of the potential interaction between catechins and catalase was performed by the fluorimetric titration technique. Briefly, solution of catalase (5×10^−7 M, as calculated using molar extinction coefficient of 3.24×10^5 M^−1 s^−1 at 405 nm for catalase) in 50 mM phosphate buffer of pH 7.4 was titrated in cuvette by successive additions of individual catechin solution aliquots from a stock of 5×10^−7 M. Fluorescence emission spectra were recorded in the wavelength range of 290–450 nm upon excitation at 280 nm when catalase samples were titrated with catechins. All experiments were carried out at room temperature. Fluorescence intensity was measured at 340 nm of protein emission spectra. Fluorescence spectra of individual catechins in buffer were recorded as blanks under the same experimental conditions and subtracted from the corresponding sample to correct the fluorescence background.
The binding constants and the number of binding sites involved were calculated according to the relation: log (F0–F)/F = log K+n log [Q], where K is the binding constant and n is the number of binding sites, F0 is the fluorescence intensity of free catalase, F is the consecutive fluorescence on addition of catechins, and [Q] is the concentration of the quencher (here catechins). A plot of log (F0– F)/F and log [Q] was used to determine the values of K and n from the intercept and the slope respectively (Figure 3 A–D).

Experiment [3] concerns the target human dihydrofolate reductase (DHFR). On the set-up: method as in PMID 20054477. Conditions: fluorescence quenching; cited from earlier work.
The subject of experiment [4] is cyclin dependent kinase 2 (CDK2). Conditions: MCF7 breast cancer cell lines, 30 µM; cited from earlier work.
Experiment [5] addresses T1, Catalase (from bovine liver). Briefly: Inhibition of pure catalase activity (cell free), H2O2 decay at 240 nm. It counts as biochemical. On the procedure:
Absorption spectrophotometer (Varian, CARY 100 Bio, USA) was used to determine pure catalase activity (cell free). Briefly, 900 µl of H2O2 (0.036%) was taken in quartz cell of 1 cm path length and its absorbance was recorded at 240 nm. To the solution, 100 µl of catalase (50 U/ml) was added and the decrease in absorbance was recorded at 10 s interval. This experiment was performed in presence 50 µM each of four catechins and 3-AT separately to evaluate the inhibitory effect of catechins on catalase activity, after 1 h incubation.
On addition of catechins, a decrease in rate of H2O2 degradation i.e. a decrease in pure catalase activity was observed which is represented in Figure 6A. Catechins with galloyl moiety (ECG and EGCG) reduced catalase activity more than its non-gallated counterparts i.e. EGC and EC. However, Inhibition by EGCG is the closest to inhibition by known catalase inhibitor 3-AT.

Consider `O=C(O[C@@H]1Cc2c(O)cc(O)cc2O[C@@H]1c1cc(O)c(O)c(O)c1)c1cc(O)c(O)c(O)c1` [EGCG, (−)-epigallocatechin gallate], for which the “intracellular ROS” value with K562 cells (12.5 µM) was 298.01±4.89 AU; in the experiment with K562 cells (25 µM) it was 320.83±4.03 AU; with K562 cells (50 µM), 354.07±4.66 AU; in the experiment on K562 cells (100 µM), 442.90±7.43 AU. Besides, the “inhibition of phosphorylation of JNK, JUN, MEK1, MEK2” value in experiment [1] was “inhibited”. For the same compound, the Ki at Bcl-2 proteins is 330 to 490 nM. Also, the Kd is 400 nM at G3BP1; 440 nM in experiment [2] (from the fluorimetric binding constant, read-out: K d to catalase); 900 nM in experiment [3]. The “number of binding sites n” value in experiment [2] (double logarithmic plot, 25°C) is “single binding site”. The “binding constant K with catalase (fluorimetric)” value in experiment [2] (double logarithmic plot, 25°C, pH 7.4, λex 280 nm) came out at 2.27e+06 M⁻¹. In experiment [4], the “inhibition of CDK2” value is listed as “inhibited”. Besides, the “y-intercept 1/V0 of inhibited catalase” value in experiment [5] (Lineweaver-Burk plot, uninhibited 0.0081) is 0.3635 min/µM. The “type of inhibition (Lineweaver-Burk plot)” value in experiment [5] (catalase – H2O2 reaction) was “uncompetitive”. For the same compound, in experiment [5] (pure catalase, 50 µM each, 1 h incubation), the “order of inhibition of catalase activity” value is recorded as 3-AT>EGCG>ECG>EC>EGC.

(Values after article PMC4099323, “Inhibition of Catalase by Tea Catechins in Free and Cellular State: A Biophysical Approach” (PLoS ONE, 2014).)
